Earlier results on one molecule are cited in patent publication US20240277627A1, “NOVEL FLUOROCHEMICAL CARDIAC RESUSCITATION” (NUVOX PHARMA LLC, priority 2023, published 2024).

On to `FC(F)(F)C(F)(F)C(F)(F)C(F)(F)C(F)(F)F` [DDFP, n-dodecafluoropentane], for which, where the note is “clears from the body via exhalation”, the “metabolism / route of clearance” value is “not metabolized”. The terminal half-life entry (humans) is given as “about 90 minutes”.
